Measurements as given in PubChem BioAssay AID2060902 (Molecular Pharmacology Branch, DTP, NCI, 2025).
“And” between values parts separate entries of the source, which are not always exact repeats. Identical values can stand only once.

Tested on: 485368-065-R3-J5-PDC spheroids with HUVEC/MSC, viability
Assay: Anticancer human tumor 485368-065-R3-J5-PDC patient-derived pancreatic carcinoma cell line growth inhibition [RAS]
Conditions: for viability, T/C: stronger effect = lower value
Outline: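 Tumour cells grown as complex spheroids with HUVEC endothelial cells and mesenchymal stem cells, treated with RAS pathway inhibitor combinations. Each agent spans half-log steps from near clinical Cmax, or 10 microM where Cmax is unknown.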
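Further: spheroids exposed to agents for seven days before readout.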

CC1(C)CCC(Nc2ncc(C(F)(F)F)c(-c3c[nH]c4c(P(C)(C)=O)c(C#N)ccc34)n2)CN1 (stereo unspecified) + CCn1c(-c2cc(N3CCN(C)CC3)cnc2C(C)OC)c2c3cc(ccc31)-c1csc(n1)CC(NC(=O)C1CC1C)C(=O)N1CCCC(N1)C(=O)OCC(C)(C)C2
IC50 (curve of first compound, second compound 0.000949 µM): < 0.949 nM | IC50 (curve of first compound, second compound 0.003 µM): < 0.949 nM | IC50 (curve of first compound, second compound 0.00949 µM): < 0.949 nM | IC50 (curve of first compound, second compound 0.03 µM): < 0.949 nM | IC50 (curve of first compound, second compound 0.0949 µM): < 0.949 nM | IC50 (curve of first compound, second compound 0.3 µM): < 0.949 nM | viability, T/C (second compound 0.000949 µM, first compound 0.000949 µM): 48.5% | viability, T/C (second compound 0.000949 µM, first compound 0.003 µM): 36.9% | viability, T/C (second compound 0.000949 µM, first compound 0.00949 µM): 26.8% | viability, T/C (second compound 0.000949 µM, first compound 0.03 µM): 31% | viability, T/C (second compound 0.000949 µM, first compound 0.0949 µM): 31.2% | viability, T/C (second compound 0.000949 µM, first compound 0.3 µM): 30.4% | viability, T/C (second compound 0.003 µM, first compound 0.000949 µM): 24.4% | viability, T/C (second compound 0.003 µM, first compound 0.003 µM): 26.2% | viability, T/C (second compound 0.003 µM, first compound 0.00949 µM): 24.3% | viability, T/C (second compound 0.003 µM, first compound 0.03 µM): 23.6% | viability, T/C (second compound 0.003 µM, first compound 0.0949 µM): 26.9% | viability, T/C (second compound 0.003 µM, first compound 0.3 µM): 27.4% | viability, T/C (second compound 0.00949 µM, first compound 0.000949 µM): 17.1% | viability, T/C (second compound 0.00949 µM, first compound 0.003 µM): 19% | viability, T/C (second compound 0.00949 µM, first compound 0.00949 µM): 19.6% | viability, T/C (second compound 0.00949 µM, first compound 0.03 µM): 19.9% | viability, T/C (second compound 0.00949 µM, first compound 0.0949 µM): 24.5% | viability, T/C (second compound 0.00949 µM, first compound 0.3 µM): 21.1% | viability, T/C (second compound 0.03 µM, first compound 0.000949 µM): 14% | viability, T/C (second compound 0.03 µM, first compound 0.003 µM): 18.8% | viability, T/C (second compound 0.03 µM, first compound 0.00949 µM): 17.4% | viability, T/C (second compound 0.03 µM, first compound 0.03 µM): 18.6% | viability, T/C (second compound 0.03 µM, first compound 0.0949 µM): 22.4% | viability, T/C (second compound 0.03 µM, first compound 0.3 µM): 21.2% | viability, T/C (second compound 0.0949 µM, first compound 0.000949 µM): 13.2% | viability, T/C (second compound 0.0949 µM, first compound 0.003 µM): 15.9% | viability, T/C (second compound 0.0949 µM, first compound 0.00949 µM): 15.7% | viability, T/C (second compound 0.0949 µM, first compound 0.03 µM): 17% | viability, T/C (second compound 0.0949 µM, first compound 0.0949 µM): 20.2% | viability, T/C (second compound 0.0949 µM, first compound 0.3 µM): 23.2% | viability, T/C (second compound 0.3 µM, first compound 0.000949 µM): 11.7% | viability, T/C (second compound 0.3 µM, first compound 0.003 µM): 15.8% | viability, T/C (second compound 0.3 µM, first compound 0.00949 µM): 15.4% | viability, T/C (second compound 0.3 µM, first compound 0.03 µM): 21.9% | viability, T/C (second compound 0.3 µM, first compound 0.0949 µM): 19.4% | viability, T/C (second compound 0.3 µM, first compound 0.3 µM): 22.6%

O=C(c1ccc(F)c(F)c1Nc1ccc(I)cc1F)N1CC(O)([C@@H]2CCCCN2)C1 + C=CC(=O)N1CCN(c2nc(OCC3CCCN3C)nc3c(F)c(-c4nc(N)cc(C)c4C(F)(F)F)c(Cl)cc23)C(C)C1
IC50 (curve of first compound, second compound 0.00316 µM): 28.6 nM | IC50 (curve of first compound, second compound 0.01 µM): 27.8 nM | IC50 (curve of first compound, second compound 0.0316 µM): 31.1 nM | IC50 (curve of first compound, second compound 0.1 µM): 29.1 nM | IC50 (curve of first compound, second compound 0.316 µM): 34.4 nM | IC50 (curve of first compound, second compound 1 µM): 49.6 nM | viability, T/C (second compound 0.00316 µM, first compound 0.00316 µM): 106% | viability, T/C (second compound 0.00316 µM, first compound 0.01 µM): 60.2% | viability, T/C (second compound 0.00316 µM, first compound 0.0316 µM): 56.9% | viability, T/C (second compound 0.00316 µM, first compound 0.1 µM): 30.1% | viability, T/C (second compound 0.00316 µM, first compound 0.316 µM): 24.3% | viability, T/C (second compound 0.00316 µM, first compound 1 µM): 8.78% | viability, T/C (second compound 0.01 µM, first compound 0.00316 µM): 99.8% | viability, T/C (second compound 0.01 µM, first compound 0.01 µM): 71.6% | viability, T/C (second compound 0.01 µM, first compound 0.0316 µM): 44.8% | viability, T/C (second compound 0.01 µM, first compound 0.1 µM): 29.5% | viability, T/C (second compound 0.01 µM, first compound 0.316 µM): 26.1% | viability, T/C (second compound 0.01 µM, first compound 1 µM): 8.23% | viability, T/C (second compound 0.0316 µM, first compound 0.00316 µM): 90.9% | viability, T/C (second compound 0.0316 µM, first compound 0.01 µM): 73.1% | viability, T/C (second compound 0.0316 µM, first compound 0.0316 µM): 47.8% | viability, T/C (second compound 0.0316 µM, first compound 0.1 µM): 29.8% | viability, T/C (second compound 0.0316 µM, first compound 0.316 µM): 23.1% | viability, T/C (second compound 0.0316 µM, first compound 1 µM): 7.64% | viability, T/C (second compound 0.1 µM, first compound 0.00316 µM): 86% | viability, T/C (second compound 0.1 µM, first compound 0.01 µM): 72.3% | viability, T/C (second compound 0.1 µM, first compound 0.0316 µM): 44.6% | viability, T/C (second compound 0.1 µM, first compound 0.1 µM): 30.4% | viability, T/C (second compound 0.1 µM, first compound 0.316 µM): 25.3% | viability, T/C (second compound 0.1 µM, first compound 1 µM): 8.95% | viability, T/C (second compound 0.316 µM, first compound 0.00316 µM): 85.8% | viability, T/C (second compound 0.316 µM, first compound 0.01 µM): 68.6% | viability, T/C (second compound 0.316 µM, first compound 0.0316 µM): 50.5% | viability, T/C (second compound 0.316 µM, first compound 0.1 µM): 33.1% | viability, T/C (second compound 0.316 µM, first compound 0.316 µM): 26.8% | viability, T/C (second compound 0.316 µM, first compound 1 µM): 8.9% | viability, T/C (second compound 1 µM, first compound 0.00316 µM): 91.6% | viability, T/C (second compound 1 µM, first compound 0.01 µM): 65.5% | viability, T/C (second compound 1 µM, first compound 0.0316 µM): 52.7% | viability, T/C (second compound 1 µM, first compound 0.1 µM): 47.3% | viability, T/C (second compound 1 µM, first compound 0.316 µM): 27.6% | viability, T/C (second compound 1 µM, first compound 1 µM): 11.4%

C[C@@H](NC(=O)c1ncnc(N)c1Cl)c1ncc(C(=O)Nc2cc(C(F)(F)F)c(Cl)cn2)s1
viability, T/C (compound 0.0316 µM): 114% (3×) and 115% | viability, T/C (compound 0.1 µM): 104% [middle of 4 runs] | viability, T/C (compound 0.316 µM): 109% [middle of 4 runs] | viability, T/C (compound 1 µM): 93.4% and 96.5% (2×) and 92.5% | viability, T/C (compound 3.16 µM): 108% [middle of 4 runs] | viability, T/C (compound 10 µM): 82.4% [middle of 4 runs] | IC50 (curve of compound): > 10000 nM
